Measurements as given in ChEMBL document CHEMBL4400557, “The potential of click reactions for the synthesis of bioactive triterpenes” (Bioorg Med Chem Lett, 2019).
Each block holds one compound with its values, some of them ahead of it.

Key:
[1] = Inhibition of rabbit muscle glycogen phosphorylase; parameters: species or system Oryctolagus cuniculus
[2] = system: KB; experiment: Antiproliferative activity against human KB cells; assay type: functional, cell-based
[3] = system: CCRF-CEM; experiment: Cytotoxicity in human CCRF-CEM cells incubated for 72 hrs by SRB assay; assay type: functional, cell-based
[4] = system: AGS; experiment: Antiproliferative activity against human AGS cells after 3 days by MTT assay; assay type: functional, cell-based; details: 72 h
[5] = Inhibition of glycogen phosphorylase (unknown origin); parameters: species or system Homo sapiens
[6] = system: MDA-MB-231; experiment: Antiproliferative activity against human MDA-MB-231 cells by SRB assay; assay type: functional
[7] = Antiproliferative activity against human A375-S2 cells after 72 hrs by MTT assay; assay type: functional, cell-based; details: A375-S2, 72 h
[8] = system: HT-1080; experiment: Antiproliferative activity against human HT1080 cells after 72 hrs by MTT assay; assay type: functional, cell-based; details: HT-1080, 72 h
[9] = system: Human immunodeficiency virus 1; experiment: Antiviral activity against HIV-1 NL4-3; assay type: functional, organism-based; details: Human immunodeficiency virus 1, NL4-3
[10] = system: HL-60; experiment: Antiproliferative activity against human HL60 cells by MTT assay; assay type: functional, cell-based

- IC50 [1]: 5.4 µM
SMILES: CCCCCCCCC(=O)OCc1cn(CC(=O)O[C@H]2CC[C@]3(C)[C@H]4CC=C5[C@@H]6CC(C)(C)CC[C@]6(C(=O)O)CC[C@@]5(C)[C@]4(C)CC[C@H]3C2(C)C)nn1

- IC50 [2]: 8.1 µM
SMILES: C=C(C)[C@@H]1CC[C@]2(C(=O)NCc3cn(C4CC(n5cc(C)c(=O)[nH]c5=O)OC4CO)nn3)CC[C@]3(C)[C@H](CC[C@@H]4[C@@]5(C)CC[C@H](OC(=O)CC(=O)OC)C(C)(C)[C@@H]5CC[C@]43C)[C@@H]12 (stereo partly specified)

SMILES: C=C(Cn1cc(-c2ccccc2C=O)nn1)[C@@H]1CC[C@]2(C(=O)O)CC[C@]3(C)[C@H](CC[C@@H]4[C@@]5(C)CC[C@H](OC(C)=O)C(C)(C)[C@@H]5CC[C@]43C)[C@@H]12
- IC50 [3]: 3.3 µM

- IC50 [4]: 8.9 µM
SMILES: CC1(C)CC[C@]2(C(=O)O)CC[C@]3(C)C(=CC[C@@H]4[C@@]5(C)CC[C@H](OC(=O)CCc6cn(Cc7ccc(Cl)cc7)nn6)C(C)(C)[C@@H]5CC[C@]43C)[C@@H]2C1

- IC50 [5]: 2.59 µM
SMILES: CC1(C)CC[C@]2(C(=O)O)CC[C@]3(C)C(=CC[C@@H]4[C@@]5(C)CC[C@H](OCc6cn(CCCCCCn7cc(CO[C@H]8CC[C@]9(C)[C@H]%10CC=C%11[C@@H]%12CC(C)(C)CC[C@]%12(C(=O)O)CC[C@@]%11(C)[C@]%10(C)CC[C@H]9C8(C)C)nn7)nn6)C(C)(C)[C@@H]5CC[C@]43C)[C@@H]2C1

- GI50 [6]: 1.4 µM
SMILES: C[C@H]1[C@H](C)CC[C@]2(C(=O)OCCCn3cc(COC(=O)[C@]45CC[C@@H](C)[C@H](C)[C@H]4C4=CC[C@@H]6[C@@]7(C)CC[C@H](O)C(C)(C)[C@@H]7CC[C@@]6(C)[C@]4(C)CC5)nn3)CC[C@]3(C)C(=CC[C@@H]4[C@@]5(C)CC[C@H](O)C(C)(C)[C@@H]5CC[C@]43C)[C@H]12

- IC50 [8]: 3.51 µM
SMILES: CC1(C)CC[C@]2(C(=O)OCc3cn(-c4ccc([N+](=O)[O-])cc4)nn3)CC[C@]3(C)C(=CC[C@@H]4[C@@]5(C)CC[C@H](O)C(C)(C)[C@@H]5CC[C@]43C)[C@@H]2C1
- IC50 [7]: 4.97 µM

- IC50 [9]: 0.19 µM
SMILES: C=C(C)[C@@H]1CC[C@]2(C(=O)O[Si](c3ccccc3)(c3ccccc3)C(C)(C)C)CC[C@]3(C)[C@H](CC[C@@H]4[C@@]5(C)CC[C@H](O)C(C)(C)[C@@H]5CC[C@]43C)[C@@H]12

- IC50 [10]: 1.7 µM
SMILES: C=C(Cn1cc(-c2ccc(F)cc2)nn1)[C@@H]1CC[C@]2(C(=O)O)CC[C@]3(C)[C@H](CC[C@@H]4[C@@]5(C)CC[C@H](O)C(C)(C)[C@@H]5CC[C@]43C)[C@@H]12

- IC50 [5]: 1.4 µM
SMILES: CO[C@H]1O[C@H](Cn2cc(COC(=O)[C@]34CCC(C)(C)C[C@H]3C3=CC[C@@H]5[C@@]6(C)CC[C@H](O)C(C)(C)[C@@H]6CC[C@@]5(C)[C@]3(C)CC4)nn2)[C@@H](O)[C@H](O)[C@H]1O
